Paper PMC6591251, “Discovery of potent necroptosis inhibitors targeting RIPK1 kinase activity for the treatment of inflammatory disorder and cancer metastasis” (Cell Death & Disease, 2019)

How the values were obtained:
[1] = test system: TNF-induced systemic inflammatory response syndrome; assay: TNF-induced SIRS mouse model; type: in vivo, C57BL/6 mice; conditions: for protection against TNFα-induced lethal shock: PK6 30 mg/kg, PK68 1 mg/kg ip, 15 min before TNF-α 6 μg per mouse
Procedure: Necroptosis is involved in a variety of inflammatory disorders such as TNF-induced SIRS[11],[12]. We therefore evaluated the therapeutic effect of PK68 in a mouse model of TNF-induced SIRS. C57BL/6 mice were treated with vehicle, PK6, or PK68 for 15 min prior to intravenous injection of mouse TNFα (6 µg TNFα per mouse). […] SIRS is associated with systemic release of proinflammatory cytokines and tissue injuries. […] Moreover, TNF-induced damage of the colon was attenuated by the treatment of PK68 (Fig. 7d).
Fig. 7 PK68 ameliorates TNF-induced systemic inflammatory response syndrome. C57BL/6 mice (n = 11) were injected with vehicle, PK6 (30 mg/kg), or PK68 (1 mg/kg) via intraperitoneal injection for 15 min, followed by the tail intravenous injection of mouse TNF-α (6 μg per mouse). a, b The survival rate (a) and body temperature loss (b) were monitored. c, d C57BL/6 mice (n = 5) were injected with vehicle or PK68 (1 mg/kg) for 15 min prior to the injection of mouse TNF-α. The mice were sacrificed 4 h after TNF-α administration, the serum concentration of IL-1β was measured by ELISA kits (c), and histology of the colon tissue was analyzed by H&E staining and the representative images are shown (d). The serum or colon tissue from C57BL/6 mice was used as the control (Normal). Magnification: ×100 (left) and ×200 (right). Data represent mean value ± standard deviation. *P < 0.05. **P < 0.01. ***P < 0.001
PK6 and PK68 were diluted into sterile PBS. C57BL/6 mice were pretreated with vehicle, PK6 (30 mg/kg), or PK68 (1 mg/kg) via intraperitoneal injection for around 15 min and then challenged with mouse TNF-α (6 μg per mouse) via tail intravenous injection. Mice mortality was continuously monitored till 72 h after TNF-α administration. The serum and colon tissue are collected at 4 h post TNF-α challenge.

[2] = test system: HT-29 cells stably expressing Flag-tagged RIPK3; assay: RIPK3 puncta formation, immunofluorescence; type: cell-based, human; conditions: T 100 ng/ml, S, Z 12 h
From the text: In addition to TNF-induced necroptosis, it is known that TLR3 or TLR4 activation can also trigger necroptosis. We further evaluated the effects of PK6 and PK68 on TLR3- and TLR4-mediated necroptosis induced by poly(I:C)/z-VAD and LPS/z-VAD, respectively. […] To investigate the molecular mechanism of PK series-mediated necroptosis inhibition, we examined the effects of these compounds on the major steps of necroptotic signaling, including activation of RIPK1, RIPK3, and MLKL. […] It has been shown previously that RIPK3 activation leads to the formation of RIPK3 puncta during necroptosis.
Fig. 3 PK6 and PK68 block cellular activation of RIPK1, RIPK3, and MLKL upon necroptotic stimuli. a, b Bone marrow-derived macrophages from C57BL/6 mice or rat were pretreated with DMSO, PK6(10 μM), or PK68 (100 nM) for 1 h and subsequently treated with indicated stimuli for 24–30 h. Cell viability was determined by measuring ATP levels. L, LPS (20 ng/ml); P, poly(I:C) (50 μg/ml); S (100 nM); Z (10 μM). Data are represented as the mean ± standard deviation of triplicates. c HT-29 cells were treated with the indicated compound for 1 h prior to the treatment of T (40 ng/ml), S (100 nM), and Z (20 μM) for additional 8 h. […] The distribution of RIPK3 was detected by immunofluorescence. *P < 0.05. **P < 0.01. ***P < 0.001 […]

[3] = test system: HeLa-MLKL (1–190) cells; assay: MLKL dimerization-induced cell death (AP20187); type: cell-based, human; conditions: AP20187 100 nM, 24 h
Procedure: Recombinant proteins were incubated with PK6 and PK68 as indicated. […] NIH3T3-RIPK3 cells were pretreated with indicated compounds for 1 h and subsequently treated with T (40 ng/ml)/S (100 nM)/Z (20 μM) or AP20187 (100 nM) for 24 h. Cell viability was determined by measuring ATP levels. e PK6 and PK68 have no effect on MLKL dimerization-induced cell death in HeLa-MLKL (1–190) cells that stably express MLKL (1–190aa) fused to DmrB. HeLa-MLKL (1–190) cells were pretreated with indicated compounds for 1 h and subsequently treated with AP20187 (100 nM) for 24 h. Cell viability was determined by measuring ATP levels.
Further, we evaluated the selectivity of PK68 against a panel of 369 kinases provided by Reaction Biology (at 1000 nM). […] In addition, we followed on some of the active “hits” from the kinome scan. PK68 was tested against TNIK and TRKA by a reputable CRO company. […] RIPK1 is known to mediate NF-κB activation independently of its kinase activity. […] It has been shown that homodimerization of RIPK3 or MLKL induced by the dimerizer leads to necroptosis bypassing the upstream signals[10],[37]. […] This dimerized RIPK3-induced necroptosis was blocked by RIPK3 inhibitor GSK873 but was not blocked by the RIPK1 inhibitor necrostatin-1. […] (Fig. 4e).
The cell viability was analyzed by using the CellTiter-Glo Luminescent Cell Viability Assay kit following the manufacturer’s instructions (Promega). Luminescence was measured with SpectraMax i3x (Molecular Devices).

SMILES | protection against TNFα-induced lethal shock [1] | generation of RIPK3 puncta [2] | polymerized MLKL-induced necroptosis [3] | TNFα-induced temperature loss ([1]; 1 mg/kg ip) | TNF-induced damage of the colon ([1]; 1 mg/kg, 4 h after TNF-α) | production of proinflammatory cytokines including IL-1β ([1]; 1 mg/kg, serum 4 h after TNF-α)
CC(=O)Nc1nc2ccc(-c3cnc(Cl)c(NC(=O)Cc4ccccc4)c3)cc2s1 [PK6, N-(5-(2-acetamidobenzo[d]thiazol-6-yl)-2-chloropyridin-3-yl)-2-phenylacetamide] | effective protection | prevented generation of RIPK3 puncta | neither PK6 nor PK68 had any effect |  |  | 
CC(=O)Nc1nc2ccc(-c3cnc(C)c(NC(=O)OC4CCCCC4)c3)cc2s1 [PK68, cyclohexyl (5-(2-acetamidobenzo[d]thiazol-6-yl)-2-methylpyridin-3-yl)carbamate] | effective protection | prevented generation of RIPK3 puncta | neither PK6 nor PK68 had any effect | strongly reduced | attenuated | significantly ameliorated
